# pIC50: −log10 of the molar value.
# How the values were obtained:
# [1] = GSK_TCAKS: pIC50 HepG2 human cell line viability assay using luminiscence. […] Seeding density was checked to ensure that new mono-layers were not more than 50% confluent at the time of harvesting. Cell suspension was added to 500 mL of the same medium at a final density of 1.2 * 10^5 cells/mL. This cell suspension was dispensed (25 uL, 3000 cells per well) into 384-well clear-bottom plates using a Multidrop Combi dispenser. Prior to addition of the cell suspension, the screening compounds (250 nL) were pre-dispensed into the plates with an Echo liquid handler. Plates were incubated for 48 h at 37C, 5% CO2. After incubation, plates equilibrated at room temperature for 30 min before proceeding to develop the luminescent signal. The signal developer, CellTiter-Glo Reagent, was allowed to equilibrate at room temperature for 30 min and added to the plates (25uL per well) using a Multidrop Combi dispenser. Plates were left for 10 min at room temperature for stabilization and then read using a ViewLux.; assay type: toxicity, cell-based
# Leishmania donovani [2] = assay: (§1) GSK_TCAKS: pIC50 Leishmania donovani Imaging: Infected Macrophages. Assay plates (384-well) were prepared by adding 250nL of compound to each well. For single shot assay, the final compound concentration was 5 uM. […] Automated image analysis was performed with a script developed on Acapella High Content Imaging and Analysis Software (PerkinElmer). Output: Percent of infected macrophage cells were reported for each well.; assay type: functional, organism-based, Homo sapiens; details: THP-1
# Trypanosoma cruzi [3] = assay: (§2) GSK_TCAKS: pIC50 Trypanosoma cruzi Imaging: Amastigotes/Cell. […] Cells were then washed once with PBS before infection. T. cruzi trypomastigotes, collected at days 5 to 8 after infection from LLC-MK2 parasite infected cultures, were allowed to swim out for 4h at 37C from a centrifuged pellet (2,500 rpm/10 min/room temperature). Trypomastigotes were then collected and counted in a CASY Cell Counter. Trypomastigotes, in supplemented DMEM, were added to H9c2 cultures in a multiplicity of infection of 1 and incubated for 18 h. Cells were washed once with PBS before incubation of the infected H9c2 monolayer with trypsin (Life-Technologies) to detach cells from the flask. Cells were counted in a CASY Cell Counter using a 150 um capillary and their density set at 5 * 10^4 cells per mL in supplemented assay DMEM. Infected H9c2 were dispensed into 384-well poly-lysine coated assay plates at 50uL per well using a Multidrop Combi dispenser. After seeding them, the plates were incubated at 37C, 5% CO2 for 72h. Cultures were then fixed and stained by addition of 50 uL of a solution containing 8% formaldehyde and 4 uM DRAQ5 DNA dye (BioStatus, UK) per well. […] Five images were collected per well for reliable statistical analysis. Automated image analysis was performed with a script developed on Acapella High Content Imaging and Analysis Software (PerkinElmer). Output: number of amastigotes per cell as infection level measurement.; assay type: functional, organism-based, Rattus norvegicus; details: H9c2, 4 h
# Leishmania donovani [4] = assay: GSK_TCAKS: pIC50 Leishmania donovani viability assay using fluorescence intensity. Assay plates (1536-well) were prepared by adding 30nL per well of compound. For single shot assay, the final compound concentration was 5uM. […] Briefly, eGFP LdBOB axenic amastigotes were harvested, fixed and counted in a CASY cell counter (Roche-Applied Science). A final concentration of 1.5 * 10^5 cells per well were prepared in amastigote media containing 500 U/mL penicillin/streptomycin (Invitrogen) and 6uL was dispensed to each experimental well using a Multidrop Combi dispenser (Thermo Scientific). 6uL of assay media was dispensed to control columns used as reference for 100% compound response. Following incubation for 72 h at 37C, 5% CO2, 2 uL of resazurin was added to each well at a final concentration of 0.5 mM in phosphate buffered saline (PBS) with IGEPAL (Sigma-Aldrich), 0.05% (v/v).; assay type: functional, organism-based
# Trypanosoma cruzi [5] = assay: GSK_TCAKS: pIC50 Trypanosoma cruzi viability assay using beta-GAL activity. This assay was run at single shot at 5uM compound concentration per well. The biological reagents consisted of NIH-3T3 host cells and trypomastigotes parasitic cells; both cell types were set to a 3.3 * 10^5 cells/mL dilution in assay DMEM by means of a CASY cell counter device using a 60um capillary. 6 uL of the mixture were dispensed per well (about 1 * 10^3 host-cells and 1 * 10^3 parasites) with a Multidrop Combi dispenser. […] In all wells, the percentage of DMSO never exceeded 0.5%. Plates incubated for four days at 37C, 5% CO2. The substrate used for the assay fluorescence intensity (FLINT) readout was resorufin-beta-D-galactopiranoside (Sigma-Aldrich) at 5uM per well. It was diluted in PBS supplemented with the soft detergent Igepal (Fluka).; assay type: functional, organism-based, Mus musculus; details: Tulahuen, NIH3T3
# [6] = tested on: Trypanosoma brucei brucei; assay: GSK_TCAKS: pIC50 Trypanosoma brucei viability assay using luminiscence. Assay plates (1536-well) were prepared. T. brucei cultures were harvested and counted in a CASY cell counter. A parasite suspension was prepared at a final concentration of 5 * 10^4 cells/mL in complete HMI9 medium and 6uL was dispensed to all wells containing compounds using a Multidrop Combi dispenser. 6uL of HMI9 media with 0.4% DMSO were dispensed to control columns. Plates were incubated for 24 h at 37C, 5% CO2 then tempered for 10 min at room temperature. ATP content was quantified by adding 4 uL of CellTiter-Glo Reagent (Promega) according to the manufacturer's instructions. Luminescence was measured using a ViewLux.; assay type: functional, organism-based; details: Lister 427, CASY
# Trypanosoma cruzi [7] = assay: as §2, with “H2C9” for “Trypanosoma cruzi”, “H9c2 Host Cardiomyocytes.” for “Amastigotes/Cell.”, “Number” for “number”, “H9c2 Host Cardiomyocytes nuclei to determine drug-related cytotoxicity.” for “amastigotes per cell as infection level measurement.”; assay type: functional, organism-based, Rattus norvegicus; details: H9c2, 4 h
# Leishmania donovani [8] = assay: as §1, with “THP-1 Host” for “Infected”, “THP-1 cell count” for “Percent of infected macrophage cells”; assay type: functional, organism-based, Homo sapiens
# Trypanosoma cruzi [9] = assay: GSK_TCAKS: pIC50 Trypanosoma cruzi Imaging: Infected Cells. […] Cells were then washed once with PBS before infection. T. cruzi trypomastigotes, collected at days 5 to 8 after infection from LLC-MK2 parasite infected cultures, were allowed to swim out for 4h at 37C from a centrifuged pellet (2,500 rpm/10 min/room temperature). Trypomastigotes were then collected and counted in a CASY Cell Counter. Trypomastigotes, in supplemented DMEM, were added to H9c2 cultures in a multiplicity of infection of 1 and incubated for 18 h. Cells were washed once with PBS before incubation of the infected H9c2 monolayer with trypsin (Life-Technologies) to detach cells from the flask. Cells were counted in a CASY Cell Counter using a 150 um capillary and their density set at 5 * 10^4 cells per mL in supplemented assay DMEM. Infected H9c2 were dispensed into 384-well poly-lysine coated assay plates at 50uL per well using a Multidrop Combi dispenser. After seeding them, the plates were incubated at 37C, 5% CO2 for 72h. Cultures were then fixed and stained by addition of 50 uL of a solution containing 8% formaldehyde and 4 uM DRAQ5 DNA dye (BioStatus, UK) per well. […] Five images were collected per well for reliable statistical analysis. Automated image analysis was performed with a script developed on Acapella High Content Imaging and Analysis Software (PerkinElmer). Output: percentage of infected cells per well as a second infection marker.; assay type: functional, organism-based, Rattus norvegicus; details: H9c2, 4 h
# [10] = target: Sterol 14-alpha demethylase (Trypanosoma cruzi (strain CL Brener), UniProt Q7Z1V1); assay: GSK_TCAKS: pIC50 CYP51 from Trypanosoma cruzi.; assay type: functional
# [11] = tested on: Trypanosoma brucei brucei; assay: GSK_TCAKS: pIC50 Trypanosoma brucei viability assay using fluorescence intensity. Assay plates (1536-well) were prepared by dispensing 25nL of compound solution per well using an Echo acoustic dispenser (Labcyte).; assay type: functional, organism-based; details: Lister 427, 2 h
# Leishmania donovani [12] = assay: as §1, with “Amastigotes/Macrophages.” for “Infected Macrophages.”, “Average number” for “Percent”, “amastigotes per” for “infected”, “cell” for “cells”; assay type: functional, organism-based, Homo sapiens; details: THP-1
# NIH3T3 = assay: GSK_TCAKS: pIC50 NIH 3T3 cell line viability assay using luminiscence. Tissue culture surface treated assay plates (1536-well) were used. […] The 100% cells survival control was determined exposing the host-cells to a 0.5% DMSO concentration, whereas the 100% toxicity control was achieved by seeding the cells in presence of Amphotericin B at 50uM. Plates were incubated for four days at 37C, 5% CO2. The assay readout was developed by addition of 5uL of CellTiter-Glo Reagent following the manufacturer's instructions. Luminiscence was measured using a ViewLux.; assay type: functional, cell-based; details: Mus musculus, NIH3T3, 96 h
# Chain of Sterol 14-alpha demethylase (Q7Z1V1 whole entry): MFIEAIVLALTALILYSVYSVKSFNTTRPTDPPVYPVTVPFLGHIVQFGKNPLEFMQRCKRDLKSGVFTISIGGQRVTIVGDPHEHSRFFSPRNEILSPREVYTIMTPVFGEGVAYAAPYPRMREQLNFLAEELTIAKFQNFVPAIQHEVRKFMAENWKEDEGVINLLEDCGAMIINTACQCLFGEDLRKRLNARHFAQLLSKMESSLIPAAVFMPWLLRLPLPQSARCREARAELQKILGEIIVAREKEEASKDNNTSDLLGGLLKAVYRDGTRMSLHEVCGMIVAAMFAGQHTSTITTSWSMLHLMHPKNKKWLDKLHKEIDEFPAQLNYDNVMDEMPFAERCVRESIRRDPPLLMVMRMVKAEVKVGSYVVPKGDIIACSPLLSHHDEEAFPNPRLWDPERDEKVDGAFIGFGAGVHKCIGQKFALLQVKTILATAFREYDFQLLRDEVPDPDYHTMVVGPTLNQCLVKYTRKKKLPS
Compound,IC50 at 48 h [1],pIC50 (Leishmania donovani [2]),pIC50 (Trypanosoma cruzi [3]),pIC50 (Leishmania donovani [4]),pIC50 (Trypanosoma cruzi [5]),pIC50 [6],pIC50 (Trypanosoma cruzi [7]),pIC50 (Leishmania donovani [8]),pIC50 (Trypanosoma cruzi [9]),pIC50 [10],pIC50 [11],pIC50 (Leishmania donovani [12]),pIC50 (NIH3T3)
CN(Cc1ccc(C(N)=O)cc1)C(c1ccc(F)cc1)c1cccnc1 (centres undefined),> 100 µM,< 4.30,6.70,< 4.30,6.80,< 4.40,< 4.30,< 4.30,6.60,7.00,< 4.40,< 4.30,4.50
COc1ccc(C(=O)N2CCC(Nc3cccnc3)C2)c(OC)n1 (centres undefined),> 100 µM,< 4.30,6.10,4.80,6.50,< 4.40,< 4.30,< 4.30,6.10,7.20,< 4.40,< 4.30,< 4.30
OCCCNc1nc(Nc2ccncc2)nc2ccccc12,> 100 µM,< 4.30,6.70,4.40,6.15,< 4.40,< 4.30,< 4.30,5.90,< 4.00,4.60,< 4.30,< 4.30
Cc1nn(C)c(Cl)c1CN(Cc1cccnc1)Cc1ccsc1,> 100 µM,< 4.30,6.50,5.70,6.75,< 4.40,< 4.30,< 4.30,6.50,7.20,< 4.40,5.50,4.70
CC(Cn1ccnc1)NC(=O)COc1ccc(Cl)c(Cl)c1 (centres undefined),> 100 µM,< 4.30,6.40,< 4.30,6.65,< 4.40,< 4.30,< 4.30,6.30,7.20,< 4.40,< 4.30,< 4.30
Cc1ccc(C)c(OC2CCN(C(=O)C(C)n3ccnc3)CC2)c1 (centres undefined),> 100 µM,< 4.30,6.50,5.60,6.75,< 4.40,< 4.30,< 4.30,6.40,7.00,< 4.40,6.50,< 4.30
Cc1[nH]c2ccccc2c(=O)c1Cc1c(C)[nH]c2ccccc2c1=O,> 100 µM,< 4.30,6.00,4.70,5.60,< 4.40,< 4.30,< 4.30,5.50,< 4.00,< 4.40,< 4.30,< 4.30
O=C(c1cnn(-c2ccccc2)n1)N1CCCC(n2ccnc2)C1 (centres undefined),> 100 µM,< 4.30,7.20,5.10,7.25,4.50,< 4.30,< 4.30,7.10,7.10,< 4.40,6.20,4.70
